Source: patent publication US10793563B2, “GCN2 inhibitors and uses thereof” (Merck Patent GmbH, priority 2018, dated 2020)

Experiments:
GCN2 kinase = GCN2 kinase (Homo sapiens (Human), UniProt Q9P2K8); assay: GCN2 Enzyme Inhibition Assay (Transcreener ADP2 fluorescence polarization); assay type: biochemical; settings: 280 μM ATP, 200 μM (RS)7 peptide, 4 nM GCN2, 25° C.; for Ki: Ki(app)
How it was run: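 At 25 °C, GCN2 kinase (typical final concentration 4 nM) and (RS)7 peptide in Tris-HCl pH 7.5 buffer with MgCl2, NaCl and DTT were preincubated with compound for 10 min, then ATP was added for a 1 h reaction. ADP was read by FP with antibody/Alexa633 tracer. Non-linear tight-binding analysis gave IC50 and apparent Ki.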

[1] = molecular target: intracellular GCN2 (phosphorylation of the GCN2 substrate eIF2α) (Homo sapiens (Human), UniProt Q9P2K8); assay: GCN2 Cellular Inhibition Assay (AlphaScreen SureFire P-eIF2α Ser51, borrelidin-treated U2OS cells); assay type: cell-based; settings: 10 μM borrelidin, 1 h, phosphorylated eIF2α Ser51, read-out: GCN2 Biomarker (IC50)
How it was run: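 Phospho-eIF2α (Ser51) measured by AlphaScreen SureFire in lysates of U2OS cells stimulated 1 h at 37 °C with 10 μM borrelidin alongside compound, 4-fold dilutions from 40 μM. Inhibition expressed as percent relative to borrelidin-alone controls.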

Sequence of GCN2 kinase (Q9P2K8 whole entry): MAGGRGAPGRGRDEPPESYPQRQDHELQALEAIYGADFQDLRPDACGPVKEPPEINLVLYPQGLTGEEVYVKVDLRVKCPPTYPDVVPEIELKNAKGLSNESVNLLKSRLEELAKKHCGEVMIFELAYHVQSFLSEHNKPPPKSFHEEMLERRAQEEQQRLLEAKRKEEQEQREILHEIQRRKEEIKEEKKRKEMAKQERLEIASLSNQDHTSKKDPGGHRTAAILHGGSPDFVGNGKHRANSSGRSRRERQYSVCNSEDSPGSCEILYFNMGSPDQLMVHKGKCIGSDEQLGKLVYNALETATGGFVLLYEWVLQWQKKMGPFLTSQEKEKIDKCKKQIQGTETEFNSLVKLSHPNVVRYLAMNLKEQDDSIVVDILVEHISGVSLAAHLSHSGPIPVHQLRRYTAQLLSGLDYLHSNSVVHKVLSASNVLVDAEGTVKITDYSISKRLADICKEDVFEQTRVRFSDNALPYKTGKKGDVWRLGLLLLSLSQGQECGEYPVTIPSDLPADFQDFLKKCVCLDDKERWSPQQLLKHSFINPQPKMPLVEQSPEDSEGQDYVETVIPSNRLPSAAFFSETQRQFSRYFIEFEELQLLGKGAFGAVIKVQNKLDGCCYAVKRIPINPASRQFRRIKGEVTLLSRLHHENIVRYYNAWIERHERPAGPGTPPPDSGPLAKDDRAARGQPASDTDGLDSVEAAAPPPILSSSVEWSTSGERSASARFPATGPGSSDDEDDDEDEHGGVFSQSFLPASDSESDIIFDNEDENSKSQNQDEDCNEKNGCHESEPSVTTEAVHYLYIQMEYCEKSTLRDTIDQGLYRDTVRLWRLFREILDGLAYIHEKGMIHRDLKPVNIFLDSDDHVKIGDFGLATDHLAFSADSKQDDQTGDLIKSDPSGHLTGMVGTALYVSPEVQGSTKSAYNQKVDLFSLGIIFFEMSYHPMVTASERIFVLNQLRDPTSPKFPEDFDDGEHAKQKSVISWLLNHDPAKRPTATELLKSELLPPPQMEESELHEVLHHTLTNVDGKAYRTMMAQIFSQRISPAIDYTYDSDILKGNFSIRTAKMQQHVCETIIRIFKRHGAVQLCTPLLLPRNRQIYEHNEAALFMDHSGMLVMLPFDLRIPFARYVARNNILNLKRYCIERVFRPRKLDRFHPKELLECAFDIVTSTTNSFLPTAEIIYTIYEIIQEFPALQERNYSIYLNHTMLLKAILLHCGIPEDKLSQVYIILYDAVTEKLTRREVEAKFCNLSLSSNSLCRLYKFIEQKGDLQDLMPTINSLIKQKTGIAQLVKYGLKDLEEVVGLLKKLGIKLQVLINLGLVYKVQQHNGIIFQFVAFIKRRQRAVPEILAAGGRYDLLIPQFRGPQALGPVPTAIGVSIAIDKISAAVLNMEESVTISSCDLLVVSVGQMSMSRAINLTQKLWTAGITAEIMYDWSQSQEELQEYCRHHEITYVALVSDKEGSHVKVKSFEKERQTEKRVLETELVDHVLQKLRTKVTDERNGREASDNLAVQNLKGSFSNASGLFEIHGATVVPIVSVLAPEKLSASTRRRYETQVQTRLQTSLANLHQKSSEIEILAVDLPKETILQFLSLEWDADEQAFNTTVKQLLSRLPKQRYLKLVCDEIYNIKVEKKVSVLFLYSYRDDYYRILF
Sequence of intracellular GCN2 (phosphorylation of the GCN2 substrate eIF2α) (Q9P2K8 whole entry): as above

Row | SMILES | IC50 (GCN2 kinase) | IC50 [1] | Ki (GCN2 kinase)
1 | C[C@@H]1CN(c2ccnc(-c3cnc4ccc(C(F)(F)F)cn34)n2)C[C@H](C)N1C(=O)C1CC1 [I-403, cyclopropyl(cis-2,6-dimethyl-4-(2-(6-(trifluoromethyl)imidazo[1,2-a]pyridin-3-yl)pyrimidin-4-yl)piperazin-1-yl)methanone] | 0.1 to 1 µM | 0.5 to 5 µM | 
2 | CC1CN(c2nccc(-c3cnc4ccc(C(F)(F)F)cn34)n2)C(C)C(c2cn[nH]c2)N1 (single isomer, unassigned) [I-33, 3-[2-[2,5-Dimethyl-3-(1H-pyrazol-4-yl)piperazin-1-yl]pyrimidin-4-yl]-6-(trifluoromethyl)imidazo[1,2-a]pyridine] |  | > 5 µM | 0.01 to 0.1 µM
3 | Cc1noc([C@H]2CN(c3ccnc(-c4cnc5ccc(C#N)cn45)n3)C[C@@H](C)O2)n1 [I-92, 3-{4-[(2R,6R)-2-methyl-6-(3-methyl-1,2,4-oxadiazol-5-yl)morpholin-4-yl]pyrimidin-2-yl}imidazo[1,2-a]pyridine-6-carbonitrile] |  | 0.5 to 5 µM | < 0.01 µM
4 | NC(=O)C1CN(c2ccnc(-c3cnc4ccc(C(F)(F)F)cn34)n2)CCN1C1CC1 (centres unmarked) [I-311, 1-cyclopropyl-4-(2-(6-(trifluoromethyl)imidazo[1,2-a]pyridin-3-yl)pyrimidin-4-yl)piperazine-2-carboxamide] | 0.01 to 0.1 µM | 0.5 to 5 µM | 
5 | CC(C)(C)OC(=O)N1CC2(CCCN(c3ccnc(-c4cnc5ccc(Cl)cn45)n3)C2)C1 [I-285, tert-butyl 6-(2-(6-chloroimidazo[1,2-a]pyridin-3-yl)pyrimidin-4-yl)-2,6-diazaspiro[3.5]nonane-2-carboxylate] | 0.1 to 1 µM | 0.5 to 5 µM | 
6 | Cc1[nH]ncc1[C@H]1C[C@H](N=S(C)(C)=O)CN(c2ccnc(-c3cnc4ccc(C(F)(F)F)cn34)n2)C1 [I-344, dimethyl(((3 S,5R)-5-(5-methyl-1H-pyrazol-4-yl)-1-(2-(6-(trifluoromethyl)imidazo[1,2-a]pyridin-3-yl)pyrimidin-4-yl)piperidin-3-yl)imino)-λ6-sulfanone] | 0.1 to 1 µM | 0.5 to 5 µM | 
7 | COc1cc(-c2cnc3ccc(Cl)cn23)nc(N2C[C@H](C)C[C@H](c3cn[nH]c3)C2)n1 [I-279, 6-chloro-3-(6-methoxy-2-((3R,5R)-3-methyl-5-(1H-pyrazol-4-yl)piperidin-1-yl)pyrimidin-4-yl)imidazo[1,2-a]pyridine] | 0.01 to 0.1 µM | 0.5 to 5 µM | 
8 | CS(=O)(=O)c1ccc2ncc(-c3nccc(N4CCCC(c5cn[nH]c5)C4)n3)n2c1 (centres unmarked) [I-313, 3-(4-(3-(1H-pyrazol-4-yl)piperidin-1-yl)pyrimidin-2-yl)-6-(methylsulfonyl)imidazo[1,2-a]pyridine] | 0.01 to 0.1 µM | 0.5 to 5 µM | 
9 | Fc1cc2ncc(-c3nccc(N4CCCC(c5c[nH]cn5)C4)n3)n2cc1Cl (centres unmarked) [I-57, 6-Chloro-7-fluoro-3-{4-[3-(1H-imidazol-4-yl)-piperidin-1-yl]-pyrimidin-2-yl}-imidazo[1,2-a]pyridine] |  | 0.5 to 5 µM | 0.01 to 0.1 µM
10 | C[C@@H]1C[C@H](N=S(C)(C)=O)CN(c2ccnc(-c3cnc4cc(F)c(Br)cn34)n2)C1 [I-317, (((3 S,5R)-1-(2-(6-bromo-7-fluoroimidazo[1,2-a]pyridin-3-yl)pyrimidin-4-yl)-5-methylpiperidin-3-yl)imino)dimethyl-λ6-sulfanone] | 0.01 to 0.1 µM | 0.5 to 5 µM | 
11 | C[C@@H](NS(C)(=O)=O)[C@H]1CN(c2ccnc(-c3cnc4ccc(C(F)(F)F)cn34)n2)CCO1 [I-406, N—((R)-1-((R)-4-(2-(6-(trifluoromethyl)imidazo[1,2-a]pyridin-3-yl)pyrimidin-4-yl)morpholin-2-yl)ethyl)methanesulfonamide] | 0.01 to 0.1 µM | 0.5 to 5 µM | 
12 | Cc1oncc1[C@H]1CN(c2ccnc(-c3cnc4ccc(C(F)(F)F)cn34)n2)C[C@@H](C)O1 [I-347, (2R,6S)-2-methyl-6-(5-methylisoxazol-4-yl)-4-(2-(6-(trifluoromethyl)imidazo[1,2-a]pyridin-3-yl)pyrimidin-4-yl)morpholine] | 0.1 to 1 µM | 0.5 to 5 µM | 
13 | CC1CC(C(N)=O)C(C)N(c2ccnc(-c3cnc4ccc(Cl)cn34)n2)C1 (centres unmarked) [I-50, 1-[2-(6-Chloroimidazo[1,2-a]pyridin-3-yl)pyrimidin-4-yl]-2,5-dimethyl-piperidine-3-carboxamide] |  | 0.5 to 5 µM | < 0.01 µM
14 | FC(F)C1CN(c2ccnc(-c3cnc4ccc(C(F)(F)F)cn34)n2)CCO1 (centres unmarked) [I-225, 2-(difluoromethyl)-4-(2-(6-(trifluoromethyl)imidazo[12-a]pyridin-3-yl)pyrimidin-4-yl)morpholine] | 0.1 to 1 µM | 0.5 to 5 µM | 
15 | COCC1(CN2CCN(c3ccnc(-c4cnc5ccc(C(F)(F)F)cn45)n3)[C@@H](C)[C@@H]2c2cn[nH]c2)CCC1 [I-512, 4-[(2S,3 S)-4-{[1-(methoxymethyl)cyclobutyl]methyl}-2-methyl-3-(1H-pyrazol-4-yl)piperazin-1-yl]-2-[6-(trifluoromethyl)imidazo[1,2-a]pyridin-3-yl]pyrimidine] | 0.1 to 1 µM | 0.5 to 5 µM | 
16 | CS(=O)(=O)N1CC2(CCCN(c3ccnc(-c4cnc5ccc(C(F)F)cn45)n3)C2)C1 [I-395, 6-(2-(6-(difluoromethyl)imidazo[1,2-a]pyridin-3-yl)pyrimidin-4-yl)-2-(methylsulfonyl)-2,6-diazaspiro[3.5]nonane] | 0.1 to 1 µM | 0.5 to 5 µM | 
17 | CS(=O)(=O)NC[C@@H]1CN(c2ccnc(-c3cnc4ccc(Cl)cn34)n2)CCO1 [I-19, N-[[(2S)-4-[2-(6-Chloroimidazo[1,2-a]pyridin-3-yl)pyrimidin-4-yl]morpholin-2-yl]methyl]methanesulfonamide] |  | 0.5 to 5 µM | 0.01 to 0.1 µM
18 | Cc1[nH]ncc1[C@@H]1CN(c2ccnc(-c3cnc4cc(F)c(Cl)cn34)n2)C[C@@H](C)O1 [I-538, (2R,6R)-4-(2-(6-chloro-7-fluoroimidazo[1,2-a]pyridin-3-yl)pyrimidin-4-yl)-2-methyl-6-(5-methyl-1H-pyrazol-4-yl)morpholine] | 0.01 to 0.1 µM | 0.5 to 5 µM | 

Next, values leading:

Row | IC50 (GCN2 kinase) | IC50 [1] | Ki (GCN2 kinase) | SMILES
19 | < 0.01 µM | < 0.5 µM |  | FC(F)(F)c1ccc2ncc(-c3ccnc(N4CCN(C5CC5)[C@H](c5cn[nH]c5)C4)n3)n2c1 [I-508, 3-{2-[(R)-4-Cyclopropyl-3-(1H-pyrazol-4-yl)-piperazin-1-yl]-pyrimidin-4-yl}-6-trifluoromethyl-imidazo[1,2-a]pyridine]
20 | < 0.01 µM | 0.5 to 5 µM |  | C[C@H]1CN(c2nccc(-c3cnc4cc(F)c(Cl)cn34)n2)C[C@H](c2cn[nH]c2)O1 [I-275, (2S,6S)-4-(4-(6-chloro-7-fluoroimidazo[1,2-a]pyridin-3-yl)pyrimidin-2-yl)-2-methyl-6-(1H-pyrazol-4-yl)morpholine]
21 | < 0.01 µM | < 0.5 µM |  | Cn1cc(CN2CCN(c3ccnc(-c4cnc5ccc(C(F)(F)F)cn45)n3)CC2c2cn[nH]c2)cn1 (centres unmarked) [I-384, 3-(4-(4-((1-methyl-1H-pyrazol-4-yl)methyl)-3-(1H-pyrazol-4-yl)piperazin-1-yl)pyrimidin-2-yl)-6-(trifluoromethyl)imidazo[1,2-a]pyridine]
22 | < 0.01 µM | < 0.5 µM |  | C[C@@H]1C[C@@H](c2cn[nH]c2)CN(c2nccc(-c3cnc4ccc(N5CC(F)(F)C5)cn34)n2)C1 [I-261, 6-(3,3-difluoroazetidin-1-yl)-3-(2-((3R,5S)-3-methyl-5-(1H-pyrazol-4-yl)piperidin-1-yl)pyrimidin-4-yl)imidazo[1,2-a]pyridine]
23 | < 0.01 µM | < 0.5 µM |  | NC(=O)[C@@H]1CCCN(c2nc(-c3cnc4ccc(C(F)(F)F)cn34)ccc2F)C1 [I-260, (R)-1-(3-fluoro-6-(6-(trifluoromethyl)imidazo[1,2-a]pyridin-3-yl)pyridin-2-yl)piperidine-3-carboxamide]
24 |  | < 0.5 µM | < 0.01 µM | Fc1cc2ncc(-c3nccc(N4CCOC(c5cn[nH]c5)C4)n3)n2cc1Cl (centres unmarked) [I-23, 4-[2-(6-Chloro-7-fluoro-imidazo[1,2-a]pyridin-3-yl)pyrimidin-4-yl]-2-(1H-pyrazol-4-yl)morpholine]
25 | 0.01 to 0.1 µM | < 0.5 µM |  | CC1(C)C[C@H]1CN1CCN(c2ccnc(-c3cnc4ccc(C(F)(F)F)cn34)n2)C[C@@H]1c1cn[nH]c1 [I-528, 3-(4-((S)-4-(((R)-2,2-dimethylcyclopropyl)methyl)-3-(1H-pyrazol-4-yl)piperazin-1-yl)pyrimidin-2-yl)-6-(trifluoromethyl)imidazo[1,2-a]pyridine]
26 | < 0.01 µM | < 0.5 µM |  | C[C@@H]1C[C@H](c2cn[nH]c2)CN(c2nccc(-c3cnc4ccc(Cl)cn34)n2)C1 [I-196, 6-chloro-3-(2-((3R,5R)-3-methyl-5-(1H-pyrazol-4-yl)piperidin-1-yl)pyrimidin-4-yl)imidazo[1,2-a]pyridine]
27 | 0.01 to 0.1 µM | < 0.5 µM |  | C[C@H]1[C@@H](CNS(C)(=O)=O)N(C2CC2)[C@@H](C)CN1c1ccnc(-c2cnc3ccc(C(F)(F)F)cn23)n1 (stereo in doubt) [I-491, N-(((2R,3 S,6S)-1-cyclopropyl-3,6-dimethyl-4-(2-(6-(trifluoromethyl)imidazo[1,2-a]pyridin-3-yl)pyrimidin-4-yl)piperazin-2-yl)methyl)methanesulfonamide]
28 | < 0.01 µM | < 0.5 µM |  | NC(=O)[C@H]1CCCN(c2nc(-c3cnc4ccc(C(F)(F)F)cn34)ncc2F)C1 [I-278, (S)-1-(5-fluoro-2-(6-(trifluoromethyl)imidazo[1,2-a]pyridin-3-yl)pyrimidin-4-yl)piperidine-3-carboxamide]
